{
  "source": "patent US4596806A",
  "about": "“7-piperidino-1,2,3,5-tetrahydroimidazo[2,1-b]-quinazolin-2-one having platelet aggregation inhibitory activity” (Daiichi Seiyaku Co., Ltd., priority 1983, dated 1986)",
  "key": {"platelet aggregation": {"tested_on": "platelet aggregation", "test": "Test of Platelet Aggregation Inhibition (in vitro), human PRP", "assay_type": "cell-based", "conditions": "for IC50: Homo sapiens, Platelet, human blood, read-out: Platelet Aggregation Inhibitory Activity (in vitro: IC50)", "protocol": "The test was performed as follows in accordance with the method of Ashida et al, Thrombosis and Haemostasis, Vol. 40, p542 (1979).\nBlood was taken by puncture from the heart of a Wistar Imamichi rat under anesthesia with pentobarbital into a syringe containing 1/10 volume of a 3.13% aqueous solution of sodium citrate dihydrate, and the citrated blood was centrifuged to obtain a platelet-rich-plasma (PRP). In the same manner, citrated blood was collected from the vein of a healthy human who had not taken aspirin or any other anti-inflammatory agent since before 10 days, followed by centrifugation to obtain PRP. 0.005 ml of each test compound was added to 0.445 ml each of these PRP samples, and the system was warmed at 30° C. for 1 minute. 0.05 ml of an aggregation inducer (ADP or collagen) was then added thereto, and platelet aggregation was determined according to the method of Born, Nature, Vol. 194, p927 (1962). The inhibitory activity of platelet aggregation was expressed in terms of 50% inhibition concentration, and the results obtained are shown in Table 2."}, "B16BL6": {"tested_on": "B16BL6", "test": "Test of Inhibition on Pulmonary Metastasis, B16BL6", "assay_type": "in vivo, C57BL/6 mouse", "conditions": "day 13, mean ± standard error", "protocol": "1×10^5 cells/animal of B16BL6 or 7×10^5 cells/animal of 3LL were inoculated to the tail vein of 10 to 12 6-week-old C57BL/6 male mice per group (body weight: about 18.5 g). The compound (I) (dihydrochloride monohydrate) dissolved in a physiological saline solution (J.P.) was administered to each animal at a dose of 1, 3 or 10 mg/kg orally 24 hours, 1 hour before and 1 hour after the inoculation, or intravenously immediately before the inoculation. On the 13th day from the inoculation of B16BL6 or 11th day from the inoculation of 3LL, the number of metastatic nodules in the lungs was counted using an operating microscope."}, "[1]": {"tested_on": "B16BL6-induced aggregation", "test": "Test of Inhibition of Platelet Aggregation Caused by Cancer Cells (ex vivo), B16BL6", "assay_type": "in vivo, C57BL/6 mouse", "conditions": "1 mg/kg or more, i.v. or oral", "protocol": "The compound of the invention (dihydrochloride monohydrate) dissolved in a physiological saline solution (J.P.) was intravenously or orally administered to a 7-week-old C57BL/6 male mouse (body weight: about 20 g). Three minutes after the intravenous administration or 1 hour later from the oral administration, blood was taken from the abdominal vein into a syringe containing 1/10 volume of a 3.13% aqueous solution of sodium citrate dihydrate and PRP was prepared as described before in Test Example 6. The PRP was placed in a reaction tube under the same conditions as in Test Example 6, and 5 μl of a 200 mM calcium chloride aqueous solution was added thereto. One minute later, 50 μl of a B16BL6 (5×10^4 cells/50 μl)- or a 3LL (2×10^6 cells/50 μl)-cell suspension was added to the system. In the same manner as in Test Example 6, platelet aggregation was determined."}, "[2]": {"tested_on": "B16BL6-Induced Acute Pulmonary Embolism", "test": "Test of Inhibition of Death by Acute Pulmonary Embolism", "assay_type": "in vivo, C57BL/6 mouse", "protocol": "The compound of the present invention (dihydrochloride monohydrate) was dissolved in a physiological saline solution (J.P.) and intravenously administered to the tail vein of a 5-week-old (C57BL/6 male mouse (body weight: about 18.5 g) at a dose of 10 mg/kg or 30 mg/kg. After 3 minutes, 5×10^5 cells of B16BL6 were intravenously inoculated to the tail vein. The death ratios 3 and 10 minutes after the inoculation are shown in Table 6."}, "[3]": {"tested_on": "platelet aggregation due to addition of B16BL6 cells", "test": "Test of Inhibition of Platelet Aggregation Caused by Cancer Cells (in vitro), B16BL6", "assay_type": "cell-based, C57BL/6 mouse", "protocol": "Blood was taken from the abdominal vein of a 7-week-old C57BL/6 male mouse into a syringe containing 1/10 volume of a 3.13% aqueous solution of sodium citrate dihydrate as an anticoagulant. The thus prepared citrated blood sample was centrifuged at 230×g at room temperature for 7 minutes. The resulting supernatant fluid was used as PRP. The remainder was further centrifuged at 1,500×g at room temperature for 10 minutes, and the supernatant fluid was used as platelet-poor-plasma (PPP). Platelet count in PRP was adjusted to 450,000 per mm^3 by PPP. A 450 μl of PRP was placed in a reaction tube and subjected to centrifugation at 950 rpm at 30° C. About 1 minute later while continuing the centrifugation, 5 μl of a 200 mM calcium chloride aqueous solution was added to the system to a final concentration of […]. 30 seconds later, 5 μl of a saline solution of the compound (I) (dihydrochloride monohydrate) was added to the system, and additional 30 seconds later, 50 μl of a cell suspension containing 1×10^5 cells of B16 melamona BL6 (B16BL6) originated in a C57BL mouse or 50 μl of a cell suspension containing 1×10^6 cells of Lewis lung cancer (3LL) originated in a C57BL mouse was added thereto. Platelet aggregation of the sample system was determined from changes in transmittancy by use of an aggregometer. […]"}, "[4]": {"test": "Solubility Test (water-solubility)", "assay_type": "physicochemical"}, "[5]": {"tested_on": "Water Immersion and Immobilization-induced Gastric Ulcer", "test": "Effect on Water Immersion and Immobilization-induced Gastric Ulcer in Rats", "assay_type": "in vivo, rat (Donryu male)", "conditions": "p.o.", "protocol": "Donryu male rats having a body weight of 352 to 414 g were subjected to the stress-induced gastric ulceration test by water-immersion and immobilization [Takagi and Okabe, Japan J. Pharmacol., 18, 9-18 (1968)] at a water temperature of 20° to 22° C. for 7 hours. Compound (I) was administered orally in the form of a suspension in a 0.5% aqueous CMC solution at a dose of 5 ml/Kg 30 minutes before loading the stress. After the test period, the rats were sacrificed and the hyperemic area and the erosious area on the stomach inside wall were measured to determine % inhibition of the ulcer."}, "[6]": {"test": "LD50 (probit method), rat", "conditions": "in vivo, iv"}},
  "note": "Like-named read-outs stand apart in the source and are kept apart here.",
  "data": [
    {"molecule": "O=C1CN2Cc3cc(N4CCCCC4)ccc3N=C2N1", "note": "[Compound (I), 7-piperidino-1,2,3,5-tetrahydroimidazo[2,1-b]quinazolin-2-one]", "values": [
      {"measurement": "IC50", "setting": "platelet aggregation; inducer ADP", "result": 2.5, "unit": "µM"},
      {"measurement": "IC50", "setting": "platelet aggregation; inducer collagen", "result": 0.53, "unit": "µM"},
      {"measurement": "anti-platelet aggregation activity (in words)", "setting": "platelet aggregation; in vitro, Table 2 results (human and rat PRP)", "result": "substantially equal to that of BL-3459 and BL-4162"},
      {"measurement": "Number of Metastatic Nodules in the Lungs", "setting": "B16BL6; 1 mg/kg", "result": "5.5 ± 1.1"},
      {"measurement": "Number of Metastatic Nodules in the Lungs", "setting": "B16BL6; 3 mg/kg", "result": "5.3 ± 1.1"},
      {"measurement": "Number of Metastatic Nodules in the Lungs", "setting": "B16BL6; 10 mg/kg", "result": "6.4 ± 1.1"},
      {"measurement": "inhibition of B16BL6-induced aggregation (ex vivo)", "setting": "[1]", "result": "completely inhibited"},
      {"measurement": "Number of Dead Animals/Number of Tested Animals", "setting": "[2]; i.v. 10 mg/kg, after 3 min", "result": "2/9"},
      {"measurement": "Number of Dead Animals/Number of Tested Animals", "setting": "[2]; i.v. 10 mg/kg, after 10 min", "result": "4/9"},
      {"measurement": "Number of Dead Animals/Number of Tested Animals", "setting": "[2]; i.v. 30 mg/kg, after 3 min", "result": "1/9"},
      {"measurement": "Number of Dead Animals/Number of Tested Animals", "setting": "[2]; i.v. 30 mg/kg, after 10 min", "result": "4/9"},
      {"measurement": "inhibition of platelet aggregation due to addition of B16BL6 cells", "setting": "[3]; 0.3 μM", "result": "partially inhibited"},
      {"measurement": "inhibition of platelet aggregation due to addition of B16BL6 cells", "setting": "[3]; final concentration of 3 μM or more", "result": "completely inhibited"},
      {"measurement": "solubility", "setting": "[4]; Water at pH 4", "result": 4.1, "unit": "mg/mL"},
      {"measurement": "solubility", "setting": "[4]; pH 2, Tap Water, solution pH about 2", "result": 270, "unit": "mg/mL"},
      {"measurement": "Ulcer Index, Erosious Area", "setting": "[5]; 30 mg/kg", "result": "17.8 ± 5.7", "unit": "mm"},
      {"measurement": "Ulcer Index, Erosious Area, Inhibition", "setting": "[5]; 30 mg/kg", "result": 32, "unit": "%"},
      {"measurement": "Ulcer Index, Hyperemic Area", "setting": "[5]; 30 mg/kg", "result": "19.4 ± 9.0", "unit": "mm"},
      {"measurement": "Ulcer Index, Hyperemic Area, Inhibition", "setting": "[5]; 30 mg/kg", "result": 69, "unit": "%"},
      {"measurement": "Ulcer Index, Erosious Area", "setting": "[5]; 100 mg/kg", "result": "1.3 ± 0.8", "unit": "mm"},
      {"measurement": "Ulcer Index, Erosious Area, Inhibition", "setting": "[5]; 100 mg/kg", "result": 95, "unit": "%"},
      {"measurement": "Ulcer Index, Hyperemic Area", "setting": "[5]; 100 mg/kg", "result": 0, "unit": "mm"},
      {"measurement": "Ulcer Index, Hyperemic Area, Inhibition", "setting": "[5]; 100 mg/kg", "result": 100, "unit": "%"},
      {"measurement": "Ulcer Index, Erosious Area", "setting": "[5]; 300 mg/kg", "result": "2.6 ± 1.3", "unit": "mm"},
      {"measurement": "Ulcer Index, Erosious Area, Inhibition", "setting": "[5]; 300 mg/kg", "result": 90, "unit": "%"},
      {"measurement": "Ulcer Index, Hyperemic Area", "setting": "[5]; 300 mg/kg", "result": 0, "unit": "mm"},
      {"measurement": "Ulcer Index, Hyperemic Area, Inhibition", "setting": "[5]; 300 mg/kg", "result": 100, "unit": "%"},
      {"measurement": "LD50", "setting": "[6]; female Wistar rat", "result": 219, "unit": "mg/kg"},
      {"measurement": "LD50", "setting": "[6]; male Wistar rat", "result": 232, "unit": "mg/kg"}
    ]}
  ]
}
